Results taken from patent publication US9193722B2, “Tri-cyclic pyrazolopyridine kinase inhibitors” (Vertex Pharmaceuticals Incorporated, priority 2008, dated 2015).

Key:
Format in all cases: biochemical
PKC theta kinase = PKC theta kinase (Homo sapiens, UniProt Q04759); assay: PKC theta kinase inhibition, coupled-enzyme (NADH absorbance) assay, Ki; conditions: 240 μM ATP, 18 nM PKC theta kinase, 30° C.
Outline: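 Enzyme and compound equilibrated 10 min at 30 °C before reaction in HEPES pH 7.5 buffer with MgCl2, NaCl, EDTA and Brij. Activity tracked as NADH loss at 340 nm through a coupled system. Initial-rate data fitted by non-linear regression to give Ki.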

PKC delta kinase = PKC delta kinase (Homo sapiens, UniProt Q05655); assay: PKC delta kinase inhibition, coupled-enzyme (NADH absorbance) assay, Ki; conditions: 150 μM ATP, 46 nM PKC delta kinase, 30° C.; read-out: Ki PKC delta
Outline: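 Enzyme and compound pre-equilibrated 10 min at 30° C before adding ATP to 150 μM final. Buffer: HEPES pH 7.5 (100 mM), 10 mM MgCl2, 25 mM NaCl, 0.1 mM EDTA, 0.01% Brij.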

PKC alpha kinase = PKC alpha kinase (Homo sapiens, UniProt P17252); assay: PKC alpha kinase inhibition, coupled-enzyme (NADH absorbance) assay, Ki; conditions: 130 μM ATP, 4.5 nM PKC alpha kinase, 30° C.
Outline: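 Ki derived by non-linear regression of initial rates from a coupled assay tracking NADH absorbance at 340 nm over 15 min at 30 °C. ATP was 130 μM final after a 10 min compound–enzyme preincubation in HEPES pH 7.5 buffer with MgCl2, CaCl2, NaCl, EDTA and Brij.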

PKC theta kinase, sequence (Q04759 whole entry): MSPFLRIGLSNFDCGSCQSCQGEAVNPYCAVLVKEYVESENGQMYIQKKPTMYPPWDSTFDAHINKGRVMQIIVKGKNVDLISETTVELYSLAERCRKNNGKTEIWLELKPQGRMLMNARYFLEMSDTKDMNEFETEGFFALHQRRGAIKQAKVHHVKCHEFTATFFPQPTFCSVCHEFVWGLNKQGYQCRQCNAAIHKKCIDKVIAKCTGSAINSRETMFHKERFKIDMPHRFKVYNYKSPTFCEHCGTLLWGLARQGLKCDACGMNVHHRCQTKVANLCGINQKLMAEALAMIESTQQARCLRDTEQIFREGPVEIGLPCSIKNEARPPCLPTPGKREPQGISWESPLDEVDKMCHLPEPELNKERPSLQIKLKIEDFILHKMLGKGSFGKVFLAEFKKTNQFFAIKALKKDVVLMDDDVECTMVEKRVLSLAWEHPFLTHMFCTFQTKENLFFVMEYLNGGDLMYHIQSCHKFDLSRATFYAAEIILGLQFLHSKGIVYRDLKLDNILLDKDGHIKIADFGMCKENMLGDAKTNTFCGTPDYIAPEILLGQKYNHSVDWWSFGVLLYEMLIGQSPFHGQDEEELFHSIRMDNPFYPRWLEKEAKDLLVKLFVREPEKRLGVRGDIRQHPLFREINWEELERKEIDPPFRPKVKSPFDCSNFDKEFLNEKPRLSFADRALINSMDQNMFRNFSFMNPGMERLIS
PKC delta kinase, sequence (Q05655 whole entry): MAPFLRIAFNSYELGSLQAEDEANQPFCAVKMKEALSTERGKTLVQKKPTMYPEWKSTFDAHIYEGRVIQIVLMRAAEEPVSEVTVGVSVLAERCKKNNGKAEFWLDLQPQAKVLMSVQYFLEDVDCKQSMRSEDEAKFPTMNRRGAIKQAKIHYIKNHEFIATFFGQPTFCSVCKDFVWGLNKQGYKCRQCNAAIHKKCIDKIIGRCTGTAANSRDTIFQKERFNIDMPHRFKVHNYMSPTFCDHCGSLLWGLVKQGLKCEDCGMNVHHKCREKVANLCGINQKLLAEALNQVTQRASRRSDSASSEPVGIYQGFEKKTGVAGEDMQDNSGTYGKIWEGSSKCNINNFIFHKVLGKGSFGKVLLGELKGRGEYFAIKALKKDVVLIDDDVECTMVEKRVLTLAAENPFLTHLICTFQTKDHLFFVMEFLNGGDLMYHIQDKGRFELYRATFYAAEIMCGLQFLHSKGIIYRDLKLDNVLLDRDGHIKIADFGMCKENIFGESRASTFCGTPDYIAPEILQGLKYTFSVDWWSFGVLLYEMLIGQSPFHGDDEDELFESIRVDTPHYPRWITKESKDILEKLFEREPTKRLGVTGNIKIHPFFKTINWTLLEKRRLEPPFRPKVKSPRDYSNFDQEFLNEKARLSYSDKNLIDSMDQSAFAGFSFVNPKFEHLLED

SMILES | Ki (PKC theta kinase) | Ki (PKC delta kinase) | Ki (PKC alpha kinase)
CC(C)CC1(C(F)(F)F)CN(c2ccc(C(F)(F)F)c(-c3n[nH]c4ncccc34)n2)CCC1N (stereo not drawn) [Compound 405] | < 0.5 µM | < 0.5 µM | > 1.25 µM
CCC1CN(c2ccc(F)c(-c3n[nH]c4ncccc34)n2)CCC1C#N (stereo not drawn) [Compound 407] | < 0.05 µM | < 2.8 µM | > 1.25 µM
CC(C)CC1(CO)CN(c2ccc(C(F)(F)F)c(-c3n[nH]c4ncccc34)n2)CCC1N (stereo not drawn) [Compound 411] | < 0.5 µM | < 2.8 µM | < 2.8 µM
CC(C)CC1(CN)CN(c2ccc(C(F)(F)F)c(-c3n[nH]c4ncccc34)n2)C1 [Compound 413] | > 0.7 µM | > 1.25 µM | > 1.25 µM
CC(=O)N1CCN(c2ccc(F)c(-c3n[nH]c4ncccc34)n2)CC1C(C)(O)C(C)C (stereo not drawn) [Compound 414] | > 0.7 µM | > 1.25 µM | > 1.25 µM
CCOC(=O)N1CCN(c2ccc(F)c(-c3n[nH]c4ncccc34)n2)CC1C(C)(O)C(C)C (stereo not drawn) [Compound 418] | > 0.7 µM | > 1.25 µM | > 1.25 µM
CC(C)CC1CN(c2cc(C(F)(F)F)cc(-c3n[nH]c4ncccc34)n2)CCC1N (stereo not drawn) [Compound 419] | < 0.5 µM | > 1.25 µM | > 1.25 µM
NC[C@@H]1CCN(c2cc(C(F)(F)F)cc(-c3n[nH]c4ncccc34)n2)C1 [Compound 420] | < 2.8 µM | > 1.25 µM | > 1.25 µM
OC1CCCN(c2ccc(C(F)(F)F)c(-c3n[nH]c4ncccc34)n2)C1 (stereo not drawn) [Compound 423] | > 0.7 µM | > 1.25 µM | > 1.25 µM
CC(C)C(C)(O)C1CN(c2ccc(F)c(-c3n[nH]c4ncccc34)n2)CCN1C(=O)OC(C)(C)C (stereo not drawn) [Compound 424] | > 0.7 µM | > 1.25 µM | > 1.25 µM
CC(C)C(C)(O)C1CN(c2cncc(-c3n[nH]c4ncccc34)n2)CCN1 (stereo not drawn) [Compound 426] | < 0.05 µM | < 0.5 µM | < 2.8 µM
CCC1(CC)CN(c2ccc(C(F)(F)F)c(-c3n[nH]c4ncccc34)n2)CCC1N (stereo not drawn) [Compound 427] | < 0.05 µM | < 0.5 µM | > 1.25 µM
CC1(C)CN(c2ccc(C(F)(F)F)c(-c3n[nH]c4ncccc34)n2)CCC1N (stereo not drawn) [Compound 428] | < 0.5 µM | < 0.5 µM | > 1.25 µM
CC(C)CC1(C#N)CN(c2ccc(C(F)(F)F)c(-c3n[nH]c4ncccc34)n2)C1 [Compound 429] | > 0.7 µM | > 1.25 µM | > 1.25 µM
FC(F)(F)c1ccc(C2CCNCC2)nc1-c1n[nH]c2ncccc12 [Compound 431] | > 0.7 µM | > 1.25 µM | > 1.25 µM
NCC1CN(c2cc(C(F)(F)F)cc(-c3n[nH]c4ncccc34)n2)C1 [Compound 433] | < 2.8 µM | > 1.25 µM | > 1.25 µM
CCC1(CC(C)C)CN(c2ccc(C(F)(F)F)c(-c3n[nH]c4ncccc34)n2)CCC1N (stereo not drawn) [Compound 434] | < 0.05 µM | < 0.5 µM | < 0.5 µM

SMILES | Ki (PKC theta kinase) | Ki (PKC delta kinase) | Ki (PKC alpha kinase)
CCCC1(C)CN(c2ccc(C(F)(F)F)c(-c3n[nH]c4ncccc34)n2)CCC1N (stereo not drawn) [Compound 435] | < 0.05 µM | < 0.5 µM | < 0.5 µM
CC(C)C1(C)OC(=O)N2CCN(c3ccc(F)c(-c4n[nH]c5ncccc45)n3)CC21 (stereo not drawn) [Compound 439] | < 0.5 µM | > 1.25 µM | > 1.25 µM
Fc1ccc(C2CCNCC2)nc1-c1n[nH]c2ncccc12 [Compound 440] | < 0.5 µM | > 1.25 µM | > 1.25 µM
NC1CCN(c2cc(CO)cc(-c3n[nH]c4ncccc34)n2)CC1 [Compound 441] | < 0.05 µM | < 0.5 µM | > 1.25 µM
OCc1cc(-c2n[nH]c3ncccc23)nc(N2CCNCC2)c1 [Compound 443] | < 0.5 µM | < 2.8 µM | > 1.25 µM
CCC(N)C1(C(F)(F)F)CCN(c2ccc(F)c(-c3n[nH]c4ncccc34)n2)C1 (stereo not drawn) [Compound 448] | < 0.5 µM | < 2.8 µM | > 1.25 µM
CC(C)CC1CN(c2ccc(C(F)(F)F)c(-c3n[nH]c4ncccc34)n2)CCC1CC#N (stereo not drawn) [Compound 450] | < 0.5 µM | > 1.25 µM | > 1.25 µM
CC(C)C[C@H]1CN(c2cc(CO)cc(-c3n[nH]c4ncccc34)n2)CCN1 [Compound 451] | < 0.05 µM | < 0.5 µM | < 2.8 µM
CC(C)CC1CN(c2ccc(F)c(-c3n[nH]c4ncccc34)n2)CCC1CC#N (stereo not drawn) [Compound 452] | < 0.05 µM | > 1.25 µM | > 1.25 µM
CC(C)C(C)(O)C1CN(c2cc(CO)cc(-c3n[nH]c4ncccc34)n2)CCN1 (stereo not drawn) [Compound 454] | < 0.05 µM | < 0.5 µM | < 2.8 µM
CC(C)CC1(C#N)CN(c2ccc(F)c(-c3n[nH]c4ncccc34)n2)C1 [Compound 456] | > 0.7 µM | > 1.25 µM | > 1.25 µM
CC(C)CC1(CN)CN(c2ccc(F)c(-c3n[nH]c4ncccc34)n2)C1 [Compound 457] | > 0.7 µM | > 1.25 µM | > 1.25 µM
N#CCCC1CN(c2ccc(F)c(-c3n[nH]c4ncccc34)n2)CCC1O (stereo not drawn) [Compound 458] | < 0.5 µM | > 1.25 µM | > 1.25 µM
CC(C)CC1(CN)CCN(c2ccc(C(F)(F)F)c(-c3n[nH]c4ncccc34)n2)CC1 [Compound 466] | < 0.5 µM | > 1.25 µM | > 1.25 µM
CC(C)CC1(CN)CCN(c2ccc(F)c(-c3n[nH]c4ncccc34)n2)CC1 [Compound 467] | < 0.5 µM | > 1.25 µM | > 1.25 µM
CC(C)CC1CN(c2ccc(C(F)(F)F)c(-c3n[nH]c4ncccc34)n2)CCC1CCN (stereo not drawn) [Compound 469] | < 0.5 µM | > 1.25 µM | > 1.25 µM

Results, then the compound that gave them:

Ki (PKC theta kinase) | Ki (PKC delta kinase) | Ki (PKC alpha kinase) | SMILES
< 0.5 µM | > 1.25 µM | > 1.25 µM | CCC1CN(c2ccc(C(F)(F)F)c(-c3n[nH]c4ncccc34)n2)CCC1C#N (stereo not drawn) [Compound 406]
< 0.5 µM | > 1.25 µM | > 1.25 µM | CNC(C1CCCN(c2ccc(F)c(-c3n[nH]c4ncccc34)n2)C1)C(C)(C)C (stereo not drawn) [Compound 408]
< 0.05 µM | < 0.05 µM | < 0.5 µM | CC(C)CC1(CO)CN(c2ccc(C(F)(F)F)c(-c3n[nH]c4ncccc34)n2)CCC1N (stereo not drawn) [Compound 410]
< 0.5 µM | > 1.25 µM | > 1.25 µM | NCC1CCN(c2cc(C(F)(F)F)cc(-c3n[nH]c4ncccc34)n2)CC1 [Compound 412]
< 0.05 µM | < 0.5 µM | > 1.25 µM | CC(C)(C)C(N)C1CCN(c2ccc(F)c(-c3n[nH]c4ncccc34)n2)C1 (stereo not drawn) [Compound 421]
< 0.001 µM | < 0.05 µM | < 0.5 µM | CC(C)C(C)(O)C1CN(c2nc(-c3n[nH]c4ncccc34)c(F)cc2F)CCN1 (stereo not drawn) [Compound 425]
> 0.7 µM | > 1.25 µM | > 1.25 µM | CC(C)CC1(C(N)=O)CN(c2ccc(C(F)(F)F)c(-c3n[nH]c4ncccc34)n2)C1 [Compound 430]
< 0.05 µM | > 1.25 µM | > 1.25 µM | NCC1CCCN(c2cc(C(F)(F)F)cc(-c3n[nH]c4ncccc34)n2)C1 (stereo not drawn) [Compound 432]
< 0.05 µM | < 2.8 µM | > 1.25 µM | CC(C)C(C)(O)C1CN(c2ccc(Cl)c(-c3n[nH]c4ncccc34)n2)CCN1 (stereo not drawn) [Compound 437]
< 0.5 µM | < 0.5 µM | > 1.25 µM | CC(C)C[C@H]1CN(c2cc(C#N)cc(-c3n[nH]c4ncccc34)n2)CCN1 [Compound 442]
< 0.5 µM | > 1.25 µM | > 1.25 µM | CC(C)C(C)(O)C1CN(c2nc(-c3n[nH]c4ncccc34)c(F)cc2F)CCN1 (stereo not drawn) [Compound 444]
< 0.001 µM | < 0.05 µM | < 0.5 µM | CC(C)[C@@](C)(O)[C@@H]1CN(c2nc(-c3n[nH]c4ncccc34)c(F)cc2F)CCN1 [Compound 445]
> 0.7 µM | > 1.25 µM | > 1.25 µM | CC(C)CC1(C#N)CCN(c2ccc(C(F)(F)F)c(-c3n[nH]c4ncccc34)n2)CC1 [Compound 446]
< 0.05 µM | < 0.5 µM | > 1.25 µM | CCC1(C)CN(c2ccc(C(F)(F)F)c(-c3n[nH]c4ncccc34)n2)CCC1N (stereo not drawn) [Compound 447]
< 0.05 µM | < 0.5 µM | > 1.25 µM | NCC1CCN(c2cc(CO)cc(-c3n[nH]c4ncccc34)n2)CC1 [Compound 453]
< 2.8 µM | > 1.25 µM | > 1.25 µM | N#CCCC1CN(c2ccc(C(F)(F)F)c(-c3n[nH]c4ncccc34)n2)CCC1O (stereo not drawn) [Compound 459]
< 0.05 µM | < 0.5 µM | > 1.25 µM | NC1CCN(c2ccc(C(F)(F)F)c(-c3n[nH]c4ncccc34)n2)CC12CCCCC2 (stereo not drawn) [Compound 461]
< 0.5 µM | < 2.8 µM | > 1.25 µM | NC1CCN(c2ccc(C(F)(F)F)c(-c3n[nH]c4ncccc34)n2)CC12CCOCC2 (stereo not drawn) [Compound 462]
< 0.05 µM | < 0.5 µM | < 0.5 µM | NC1CCN(c2ccc(C(F)(F)F)c(-c3n[nH]c4ncccc34)n2)CC12CCCC2 (stereo not drawn) [Compound 464]
